Data: patent US20240246932A1 (Merck Sharp & Dohme LLC, priority 2021, published 2024)

molecular target: human NaV 1.8 channels stably expressed in HEK 293 cells (Homo sapiens (Human), UniProt Q9Y5Y9); experiment: Nav1.8 Qube automated patch-clamp assay; format: cell-based; conditions: human NaV1.8 in HEK 293 cells, whole-cell voltage clamp, room temperature; read-out: IC50 values (nM) for Examples in the Nav1.8 Qube Assay
In short: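 Whole-cell voltage clamp at room temperature on HEK293 cells; from −90 mV, a 10 s 1 Hz train of 20 ms pulses to 10 mV (repolarising to −67 mV) was applied. Peak currents at pulses 1 and 10 gave resting- and inactivated-state inhibition; IC50 fitted by Hill equation. Internal CsF/CsCl buffer.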

Sequence of human NaV 1.8 channels stably expressed in HEK 293 cells (Q9Y5Y9 whole entry): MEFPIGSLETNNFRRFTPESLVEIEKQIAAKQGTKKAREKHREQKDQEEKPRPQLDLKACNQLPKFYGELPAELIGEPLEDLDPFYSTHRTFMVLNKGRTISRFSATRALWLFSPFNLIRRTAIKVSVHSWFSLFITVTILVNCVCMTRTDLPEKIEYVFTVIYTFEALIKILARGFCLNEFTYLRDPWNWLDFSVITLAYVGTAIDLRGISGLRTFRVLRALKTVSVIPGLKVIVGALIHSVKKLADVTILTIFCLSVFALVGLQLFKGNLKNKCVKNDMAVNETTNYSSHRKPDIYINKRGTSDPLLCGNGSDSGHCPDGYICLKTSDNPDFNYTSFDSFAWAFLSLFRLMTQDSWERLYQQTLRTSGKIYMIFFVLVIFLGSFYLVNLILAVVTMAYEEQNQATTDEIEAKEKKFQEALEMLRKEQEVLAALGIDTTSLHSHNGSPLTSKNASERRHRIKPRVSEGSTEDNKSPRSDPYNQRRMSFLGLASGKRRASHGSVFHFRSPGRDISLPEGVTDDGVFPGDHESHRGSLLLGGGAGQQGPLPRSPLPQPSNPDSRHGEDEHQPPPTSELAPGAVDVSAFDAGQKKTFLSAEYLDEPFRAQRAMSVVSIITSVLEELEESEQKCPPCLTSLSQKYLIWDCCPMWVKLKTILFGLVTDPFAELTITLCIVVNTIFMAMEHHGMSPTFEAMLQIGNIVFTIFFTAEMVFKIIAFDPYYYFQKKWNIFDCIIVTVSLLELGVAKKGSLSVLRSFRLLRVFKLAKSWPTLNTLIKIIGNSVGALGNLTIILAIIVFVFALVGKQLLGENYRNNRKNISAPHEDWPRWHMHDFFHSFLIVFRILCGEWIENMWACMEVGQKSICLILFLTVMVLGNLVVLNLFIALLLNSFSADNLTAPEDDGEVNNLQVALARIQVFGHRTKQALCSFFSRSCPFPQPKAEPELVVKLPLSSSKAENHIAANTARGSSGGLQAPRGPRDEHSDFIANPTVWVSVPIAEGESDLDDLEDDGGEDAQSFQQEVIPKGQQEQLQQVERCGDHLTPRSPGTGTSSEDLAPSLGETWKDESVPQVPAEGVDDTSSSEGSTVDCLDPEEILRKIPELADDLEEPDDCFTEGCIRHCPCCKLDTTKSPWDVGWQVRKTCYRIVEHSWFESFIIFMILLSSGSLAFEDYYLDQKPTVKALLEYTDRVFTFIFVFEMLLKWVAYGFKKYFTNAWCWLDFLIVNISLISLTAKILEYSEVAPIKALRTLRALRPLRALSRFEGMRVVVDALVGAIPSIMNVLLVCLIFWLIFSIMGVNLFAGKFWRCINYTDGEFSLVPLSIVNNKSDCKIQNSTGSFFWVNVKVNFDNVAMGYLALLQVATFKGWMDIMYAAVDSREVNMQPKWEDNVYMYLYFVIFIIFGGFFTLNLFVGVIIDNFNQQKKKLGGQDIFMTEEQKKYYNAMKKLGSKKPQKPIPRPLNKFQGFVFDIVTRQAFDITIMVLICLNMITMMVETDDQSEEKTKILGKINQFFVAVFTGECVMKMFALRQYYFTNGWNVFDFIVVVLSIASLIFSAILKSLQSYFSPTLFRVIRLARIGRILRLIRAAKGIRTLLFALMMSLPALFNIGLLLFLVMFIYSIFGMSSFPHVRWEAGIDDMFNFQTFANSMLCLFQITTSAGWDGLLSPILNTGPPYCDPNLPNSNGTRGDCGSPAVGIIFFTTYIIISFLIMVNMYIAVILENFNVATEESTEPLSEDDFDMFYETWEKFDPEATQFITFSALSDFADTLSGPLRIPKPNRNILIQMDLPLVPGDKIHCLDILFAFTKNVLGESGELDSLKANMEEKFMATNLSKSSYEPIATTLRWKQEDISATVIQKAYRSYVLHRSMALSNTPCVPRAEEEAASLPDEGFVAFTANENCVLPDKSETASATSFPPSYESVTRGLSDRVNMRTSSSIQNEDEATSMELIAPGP

Row | Compound | IC50
1 | C[C@@H]1C(=O)NCCN1C(=O)NC(c1cnc(C(F)(F)F)c(Cl)c1)c1ccc(F)c(C(F)(F)F)n1 (single isomer, unassigned) [Example 82B] | 3.76 nM
2 | C[C@@H]1C(=O)NCCN1C(=O)NC(c1cnc(C(F)(F)F)c(Cl)c1)c1ccc(Cl)c(C(F)(F)F)n1 (single isomer, unassigned) [Example 83A] | 6.51 nM
3 | C[C@@H]1C(=O)NCCN1C(=O)NC(c1cnc(C(F)(F)F)c(Cl)c1)c1ccc(Cl)c(C(F)(F)F)n1 (single isomer, unassigned) [Example 83B] | 3.14 nM
4 | C[C@@H]1C(=O)NCCN1C(=O)NC(c1cnc(C(F)(F)F)c(Cl)c1)c1csc(C(F)(F)F)n1 (single isomer, unassigned) [Example 84A, (2R)-N-((R or S)-(5-chloro-6-(trifluoromethyl)pyridin-3-yl)(2-(trifluoromethyl)thiazol-4-yl)methyl)-2-methyl-3-oxopiperazine-1-carboxamide] | 16.2 nM
5 | C[C@@H]1C(=O)NCCN1C(=O)NC(c1cnc(C(F)(F)F)c(Cl)c1)c1csc(C(F)(F)F)n1 (single isomer, unassigned) [Example 84B, (2R)-N-((S or R)-(5-chloro-6-(trifluoromethyl)pyridin-3-yl)(2-(trifluoromethyl)thiazol-4-yl)methyl)-2-methyl-3-oxopiperazine-1-carboxamide] | 202 nM
6 | C[C@@H]1C(=O)NCCN1C(=O)NC(c1ccc(F)c(Cl)c1)c1cc(C(F)(F)F)n[nH]1 (single isomer, unassigned) [Example 85A] | 57.8 nM
7 | C[C@@H]1C(=O)NCCN1C(=O)NC(c1ccc(F)c(Cl)c1)c1cc(C(F)(F)F)n[nH]1 (single isomer, unassigned) [Example 85B] | 5.47 nM
8 | C[C@@H]1C(=O)NCCN1C(=O)NC(c1ccc(F)c(Cl)c1)c1cc(C(F)(F)F)nn1C (single isomer, unassigned) [Example 86A, (2R)-N-((R or S)-(3-chloro-4-fluoro-phenyl)(1-methyl-3-(trifluoro-methyl)-1H-pyrazol-5-yl)methyl)-2-methyl-3-oxopiperazine-1-carboxamide] | 3.59 nM
9 | C[C@@H]1C(=O)NCCN1C(=O)NC(c1ccc(F)c(Cl)c1)c1cc(C(F)(F)F)nn1C (single isomer, unassigned) [Example 86B, (2R)-N-((S or R)-(3-chloro-4-fluoro-phenyl)(1-methyl-3-(trifluoro-methyl)-1H-pyrazol-5-yl)methyl)-2-methyl-3-oxo-piperazine-1-carboxamide] | 154 nM
10 | C[C@@H]1C(=O)NCCN1C(=O)NC(c1ccc(OC(F)(F)F)cc1)c1cc(C(F)(F)F)n[nH]1 (single isomer, unassigned) [Example 87A, (2R)-2-methyl-3-oxo-N-((R or S)-(4-(trifluoromethoxy)phenyl)(3-(trifluoromethyl)-1H-pyrazol-5-yl)methyl)piperazine-1-carboxamide] | 124 nM
11 | C[C@@H]1C(=O)NCCN1C(=O)NC(c1ccc(OC(F)(F)F)cc1)c1cc(C(F)(F)F)n[nH]1 (single isomer, unassigned) [Example 87B, (2R)-2-methyl-3-oxo-N-((S or R)-(4-(trifluoromethoxy)phenyl)(3-(trifluoromethyl)-1H-pyrazol-5-yl)methyl)piperazine-1-carboxamide] | 10.8 nM
